Experimental data: PubChem BioAssay AID330 (DTP/NCI, 2004)
Values joined by “and” are separate entries in the source; they are usually repeats but may differ in a detail not shown here. Equal entries are not always repeated. Toxic doses and inconclusive results are not listed.

System: P388 leukemia ip, CD2F1 mice, survival T/C
Test: NCI In Vivo Anticancer Drug Screen. Data for tumor model P388 Leukemia (intraperitoneal) in CD2F1 (CDF1) mice
Details: endpoint: median survival time, higher = longer survival
Procedure, shortened: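 Mice carrying the transplanted tumor received test compound or vehicle. Survival was recorded in each group, and the value is the treated-group measurement divided by that of the vehicle-treated control group.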

[1] = dose: 50.0 mg/kg/injection, schedule: Q01DX009 (ip), vehicle: saline
[2] = dose: 100.0 mg/kg/injection, schedule: Q04DX003 (ip), vehicle: Klucel (hydroxypropylcellulose) (HPC)
[3] = dose: 200.0 mg/kg/injection, schedule: Q04DX003 (ip), vehicle: Klucel (hydroxypropylcellulose) (HPC)
[4] = dose: 50.0 mg/kg/injection, schedule: Q01DX009 (ip), vehicle: saline with Tween-80
[5] = dose: 100.0 mg/kg/injection, schedule: Q01DX009 (ip), vehicle: saline with Tween-80
[6] = dose: 200.0 mg/kg/injection, schedule: Q01DX009 (ip), vehicle: saline with Tween-80

CC(=O)OCC1OC(n2cc(CBr)nn2)C(OC(C)=O)C(OC(C)=O)C1OC(C)=O (stereo unspecified)
T/C (dose: 6.25 mg/kg/injection, schedule: Q01DX009 (ip), vehicle: distilled water + Tween-80): 102 % of control and 94 % of control
T/C (dose: 6.25 mg/kg/injection, schedule: Q01DX009 (ip), vehicle: saline): 93 % of control
T/C (dose: 12.5 mg/kg/injection, schedule: Q01DX009 (ip), vehicle: distilled water + Tween-80): 106 % of control and 115 % of control
T/C (dose: 25.0 mg/kg/injection, schedule: Q01DX009 (ip), vehicle: distilled water + Tween-80): 115 % of control
T/C (dose: 50.0 mg/kg/injection, schedule: Q01DX009 (ip), vehicle: distilled water + Tween-80): 118 % of control
T/C [1]: 163 % of control
T/C (dose: 50.0 mg/kg/injection, schedule: Q04DX003 (ip), vehicle: saline): 101 % of control
T/C (dose: 100.0 mg/kg/injection, schedule: Q01DX009 (ip), vehicle: distilled water + Tween-80): 90 % of control
T/C (dose: 100.0 mg/kg/injection, schedule: Q04DX003 (ip), vehicle: saline): 99 % of control

NC(=O)c1c[se]c(C2OC(CO)C(O)C2O)n1 (stereo unspecified)
T/C (dose: 25.0 mg/kg/injection, schedule: Q01DX005 (ip), vehicle: saline): 154 % of control

Cc1ccc(NC(=O)C(C)C)cc1
T/C [2]: 100 % of control
T/C [3]: 101 % of control
T/C (dose: 400.0 mg/kg/injection, schedule: Q04DX003 (ip), vehicle: Klucel (hydroxypropylcellulose) (HPC)): 109 % of control

CCC1C(=O)NC(=O)C1(C)c1ccccc1 (stereo unspecified)
T/C (dose: 25.0 mg/kg/injection, schedule: Q01DX009 (ip), vehicle: saline with Tween-80): 100 % of control and 102 % of control
T/C [4]: 100 % of control and 105 % of control
T/C [5]: 102 % of control and 103 % of control
T/C [6]: 102 % of control and 111 % of control

CC(=O)NC1CC(=O)N(c2ccc(Cl)cc2)C1=O (stereo unspecified)
T/C (dose: 50.0 mg/kg/injection, schedule: Q01DX009 (ip), vehicle: Klucel (hydroxypropylcellulose) (HPC)): 96 % of control
T/C (dose: 100.0 mg/kg/injection, schedule: Q01DX009 (ip), vehicle: Klucel (hydroxypropylcellulose) (HPC)): 96 % of control
T/C [2]: 102 % of control
T/C [3]: 101 % of control

CC(O)c1ccc(C(C)O)cc1 (stereo unspecified)
T/C [1]: 91 % of control
T/C (dose: 100.0 mg/kg/injection, schedule: Q01DX009 (ip), vehicle: saline): 86 % of control
T/C (dose: 200.0 mg/kg/injection, schedule: Q01DX009 (ip), vehicle: saline): 96 % of control

COC(=O)c1nc(=S)[nH]c(C(=O)OC)c1C(=O)c1ccc(Cl)c(Cl)c1
T/C (dose: 60.0 mg/kg/injection, schedule: Q01DX005 (ip), vehicle: Klucel (hydroxypropylcellulose) (HPC)): 89 % of control
T/C (dose: 120.0 mg/kg/injection, schedule: Q01DX005 (ip), vehicle: Klucel (hydroxypropylcellulose) (HPC)): 92 % of control
T/C (dose: 240.0 mg/kg/injection, schedule: Q01DX005 (ip), vehicle: Klucel (hydroxypropylcellulose) (HPC)): 95 % of control

COc1ccc(C(=O)c2ncccc2C(=O)O)cc1OC
T/C (dose: 25.0 mg/kg/injection, schedule: Q01DX009 (ip), vehicle: other): 93 % of control
T/C (dose: 50.0 mg/kg/injection, schedule: Q01DX009 (ip), vehicle: other): 88 % of control
T/C (dose: 100.0 mg/kg/injection, schedule: Q01DX009 (ip), vehicle: other): 100 % of control
T/C (dose: 200.0 mg/kg/injection, schedule: Q01DX009 (ip), vehicle: other): 97 % of control
T/C (dose: 400.0 mg/kg/injection, schedule: Q01DX009 (ip), vehicle: other): 94 % of control

CC(C)C(N)S(=O)(=O)O (stereo unspecified)
T/C [4]: 115 % of control
T/C [5]: 94 % of control
T/C [6]: 105 % of control

CC1=CC(C)(C)N=C2SC(=O)c3cc4c(cc3N12)OCO4
T/C (dose: 100.0 mg/kg/injection, schedule: Q04DX002 (ip), vehicle: saline with Tween-80): 106 % of control
T/C (dose: 200.0 mg/kg/injection, schedule: Q04DX002 (ip), vehicle: saline with Tween-80): 98 % of control
T/C (dose: 400.0 mg/kg/injection, schedule: Q04DX002 (ip), vehicle: saline with Tween-80): 97 % of control

COc1ccc(SC(N(C)C)=[N+](C)C)cc1
T/C (dose: 15.0 mg/kg/injection, schedule: Q01DX005 (ip), vehicle: saline): 100 % of control
T/C (dose: 30.0 mg/kg/injection, schedule: Q01DX005 (ip), vehicle: saline): 100 % of control
T/C (dose: 60.0 mg/kg/injection, schedule: Q01DX005 (ip), vehicle: saline): 102 % of control and 121 % of control
